Measurements reported in patent US7745493B2, “Methods of treating tardive dyskinesia and other movement disorders” (priority 1998, dated 2010).

What was measured:
[1] = test system: person two with chronic schizophrenia and severe tardive dyskinesia; assay: Case Report 6: clinical observation of severe TD with blepharospasm in chronic schizophrenia; type: in vivo; details: Case 6
Description: A corresponding physician the United Kingdom recently reported to me on the treatment of a person with chronic schizophrenia and severe tardive dyskinesia. As in Case 1, the patient's involuntary movements included severe blepharospasm. In addition, they had involuntary rhythmic peri-oral movements, and chorea-like movements of both hands, like the patient in Case 2. They had no cognitive complaints, nor were cognitive abnormalities noted on routine psychiatric examination.
The patient had developed symptoms of paranoid schizophrenia in 1991. The symptoms of psychosis included auditory hallucinations, bizarre delusions, and persecutory fears. […] They were subsequently hospitalized and stabilized on fluphenthixol decanoate, a depot neuroleptic given by intramuscular injections. Symptoms of TD developed in November, 1994, after 28 months of neuroleptic therapy. […] Beginning in October 1997 the patient was treated for their schizophrenia with 2 mg of risperidone alone. On this modest dose of an atypical neuroleptic, they had severe symptoms of TD for which they eagerly sought treatment.
Memantine was started on November 28, 1997 at a dose of 5 mg per day, increased after 7 days to 5 mg twice a day, and after another 7 days to 5 mg three times a day. […] Further dosage increases were attempted to completely abolish the involuntary movements. The maximum dose attainable without side effects was 10 mg twice a day; above that level the patient had complaints of dizziness. That dose of memantine was maintained through May of […].
In May 1998 the patient was started on acamprosate, in pursuit of complete elimination of their involuntary movements. Initially, acamprosate 333 mg three times a day was added to memantine 10 mg twice a day.

[2] = test system: person two with long-standing TD; assay: Case Report 1: clinical observation of TD with blepharospasm; type: in vivo, human; details: Case 1; for effect on involuntary movements of TD: clinical observation, acamprosate 333 mg four times a day; for cognitive function (energy, attention, concentration): subjective and objective
Procedure: Palliative treatment with alprazolam (an anxiolytic and GABA agonist via modulation; dosage 0.25 mg four times a day) and trihexyphenidyl (an anticholinergic antiparkinson drug that inhibits dopamine re-uptake at synapses; dosage 2 mg twice a day) was prescribed by another physician.
Initially, their other medications were maintained unchanged.
Nimodipine was discontinued, and the patient was begun on memantine at a dosage of 10 mg twice a day.
For the following 10 days they added 250 mg three times a day of chelated magnesium.

[3] = test system: person one with long-standing TD; assay: Case Report 2: clinical observation of TD; type: in vivo, human; details: Case 2; for effect on involuntary movements of TD: acamprosate 666 mg three times daily added to memantine, magnesium oxide 250 mg three times a day added to acamprosate; for cognitive symptoms / memory: subjective
Description: person one had long-standing TD following decades of treatment with the neuroleptic drug perphenazine. Their involuntary movements comprised bilateral chorea of the upper extremities, plus writhing of the tongue and tongue-biting. Both of the latter movements led to a very sore tongue. In addition, the patient experienced impairment of their short-term memory, which was attributed primarily to cerebrovascular disease.
They also continued to have a sore tongue. […] In addition to memantine, the patient regularly took antiepileptic drugs (gabapentin and lamotrigine), antiplatelet agents (aspirin and ticlopidine), as well as medications for hypertension, glaucoma and gastrointestinal symptoms (isosorbide mononitrate, metoprolol, timolol eye drops and olsalazine).
The patient was placed on a treatment regime that included administration of 666 mg of acamprosate, three times daily. In this case, acamprosate was added to the patient's regimen, which continued to include memantine. […] Despite past evidence from formal testing that the patient had impaired short-term memory, they performed normally on a two-sentence memory task, which involved testing the patient's recall ability using two sentences containing 13 separate details. On the two-sentence memory task, within three attempts the patient was able to recall 9 details and, using a multiple choice format, was able to recall a total of 11 details. Recall of 9 details on the third attempt would be normal for a middle-aged adult, let alone one […].
After a full year on memantine and acamprosate, the memantine was discontinued, with little change in the patient's symptoms.
Magnesium oxide, 250 mg three times a day, was added, each dose being taken together with the acamprosate. […] The effect was definite: movements worsened when magnesium oxide was stopped and improved when it was restarted. After a month on magnesium, the dosage of acamprosate was increased to 666 mg four times a day, with 250 mg of magnesium oxide given together with each dose. […] The only residual sign of TD was a mild degree of involuntary movement of the hands.

[4] = test system: person two with long-standing TD; assay: Trail Making Test, Trails B (Case 1); type: in vivo, human; details: ON drug; for Trails B Seconds: lower score better
Description: (§1) The tests showing such results included Simple Reaction Time, the Trail Making Test (both parts) and the Paced Auditory Serial Addition Test (PASAT). Choice reaction time, a test requiring both basic attention and concentration on a specific task that must be kept in mind, was slightly better on acamprosate, consistent with the hypothesis that general cognitive function, as opposed to simple attention, improves with acamprosate treatment.
(§2) The following tables report on the results of the neuropsychological tests (Drug I is memantine and Drug II is acamprosate): […]

[5] = test system: person two with long-standing TD; assay: Choice Reaction Time (Case 1); type: in vivo, human; details: lower score better
Description: as §1, §2

[6] = test system: person two with long-standing TD; assay: Trail Making Test, Trails A (Case 1); type: in vivo, human; details: lower score better
Description: as §1, §2

[7] = test system: person with extremely severe tardive dyskinesia and dystonia; assay: Case Report 4: clinical course and physician examination; type: in vivo, human; details: Case 4
[8] = test system: person two with long-standing TD; assay: Motor Functions: Grooved Functions (Case 1); type: in vivo, human; details: ON drug, lower score better; for Grooved Functions sec. DH: DH = right
Description: as §2

[9] = test system: person two with long-standing TD; assay: Paced Auditory Serial Addition Test (PASAT) (Case 1); type: in vivo, human; details: lower score better
Description: as §1, §2

[10] = test system: person two with long-standing TD; assay: Simple Reaction Time (neuropsychological test, Case 1); type: in vivo, human; details: lower score better
Procedure: On acamprosate, the patient was able to sustain concentration for prolonged periods. […] The patient's cognitive improvement was also assessed using formal neuropsychological measures. The patient was tested while on the drug, then taken off of the drug and tested two days later. On the drug, the patient was able to recall 13 of the 15 items after a short delay as well as 13 of the 15 items after a long delay, as measured by the Rey Auditory Verbal Learning Test. This was in comparison to the patient's ability while off the drug to recall only 7 of the 15 items after a short delay as well as 8 of the items after a long delay in tests performed. In addition, the patient was able to recognize all 15 of the items while on acamprosate but while off the drug (and while having been off of memantine for over 2 months) the patient could only recognize 10 of the items. The order of testing would give the advantage of familiarity to the off-drug condition. Nonetheless, the difference in favor of the on-drug condition was substantial.
as §1, §2

What does the source list for CC(=O)NCCCS(=O)(=O)O [acamprosate, calcium N-acetylhomotaurinate]?
peri-oral movements ([1]; 333 mg three times a day added to memantine 10 mg twice a day): peri-oral movements were eliminated; involuntary movements on acamprosate alone ([1]; after memantine discontinued): continued free of involuntary movements; involuntary movements two months after reinstitution [2]: absent except for very mild movements during times of stress; time to recovery of energy, stamina, concentration and memory after re-instituting treatment [2]: Within two days; time able to read a book ([2]; 333 mg four times a day): over an hour at a time; effect on involuntary movements of TD ([2]; memantine 10 mg twice a day): became imperceptible; fatigue ([2]; on the acamprosate regime): significantly decreased; cognitive function (energy, attention, concentration) [2]: improved significantly; persistent symptoms on acamprosate after memantine discontinued ([3]; 666 mg three times a day): mild choreatic movements on the hands, mild involuntary movements of the tongue and jaw; effect on involuntary movements of TD [3]: chorea and tongue-biting stopped completely; cognitive symptoms / memory [3]: memory improved; Trails B Errors [4]: 0; Trails B Seconds [4]: 43″; Choice Reaction Time 500 Green ([5]; ON drug): 382 ms; Choice Reaction Time 500 Red ([5]; ON drug): 426 ms; Choice Reaction Time 1500 Green ([5]; ON drug): 408 ms; Choice Reaction Time 1500 Red ([5]; ON drug): 379 ms; Trails A Errors ([6]; ON drug): 0; Trails A Seconds ([6]; ON drug): 20″; time after resuming drug until previous level of benefit regained [7]: 72 h; time off drug until movement disorder returned to baseline [7]: 24 h; Grooved Functions sec. DH [8]: DH = 61″; Grooved Functions sec. NDH [8]: NDH = 70″; PASAT 1.2 sec ISI errors ([9]; ON drug): 13/49; PASAT 1.6 sec ISI errors ([9]; ON drug): 11/49; PASAT 2.0 sec ISI errors ([9]; ON drug): 1/49; PASAT 2.4 sec ISI errors ([9]; ON drug): 4/49; Simple Reaction Time 500 Green ([10]; ON drug): 286 ms; Simple Reaction Time 500 Red ([10]; ON drug): 272 ms; Simple Reaction Time 1500 Green ([10]; ON drug): 261 ms; Simple Reaction Time 1500 Red ([10]; ON drug): 264 ms

CC12CC3CC(C)(C1)CC(N)(C3)C2 [memantine] was tested. Which “maximum dose attainable without side effects” value [1] did it give?
Its value is 10 mg twice a day.

What about the involuntary movements ([1]; 5 mg three times a day) of the same compound?
Its involuntary movements is “virtually no involuntary movements noted at the peak of a given dose”.

And the “blepharospasm after first two weeks” value ([1]; 5 mg twice a day)?
Its value is “marked improvement in blepharospasm”.

And the “involuntary movements after 6 months of treatment” value ([1]; 10 mg twice a day)?
Its value is “no blepharospasm or limb chorea, and only mild peri-oral movements”.

And the “complaints above maximum tolerated dose” value ([1]; above 10 mg twice a day)?
Its value is “dizziness”.

What about the “side effects at reduced dose” value ([2]; 5 mg three times a day) of the same compound?
The value was “without perceptible side effects”.

And the “time to reduction of involuntary movements” value ([2]; 10 mg twice a day)?
Its value is at most 24 h.

What about the “effect on involuntary movements of TD” value ([2]; memantine 10 mg twice a day) of the same compound?
Its value is “substantially greater degree than had been observed with nimodipine”.

And the adverse effects ([2]; nimodipine 30 mg four times a day, memantine 10 mg twice a day)?
The adverse effects was “a sense of mild intoxication”.

And the “cognitive function (energy, attention, concentration)” value [2]?
Its value is “improved energy, attention, and concentration”.

What about the “effect on involuntary movements of TD” value [3] of the same compound?
Its value is “improved, but continued at a mild-to-moderate level”.

What about the “cognitive symptoms / memory” value [3] of the same compound?
The value was “did not improve”.

What about the “Trails B Errors” value [4] of the same compound?
The value was 0.

And the “Trails B Seconds” value [4]?
Its value is 118″.

And the “Choice Reaction Time 500 Green” value [5]?
Its value is 362 ms.

What about the “Choice Reaction Time 500 Red” value [5] of the same compound?
The value was 421 ms.

And the “Choice Reaction Time 1500 Green” value [5]?
The value was 365 ms.

What about the “Choice Reaction Time 1500 Red” value [5] of the same compound?
Its value is 422 ms.

And the “Trails A Errors” value [6]?
Its value is 0.

What about the “Trails A Seconds” value [6] of the same compound?
The value was 28″.

What about the “effect on movement disorder” value ([7]; memantine 10 mg three times a day added to acamprosate and magnesium sulfate) of the same compound?
Its value is “aggravated their movement disorder”.

And the “Grooved Functions sec. DH” value [8]?
Its value is “DH = 71″”.

What about the “Grooved Functions sec. NDH” value [8] of the same compound?
Its value is “NDH = 70″”.

And the “PASAT 1.2 sec ISI errors” value [9]?
Its value is 28/49.

What about the “PASAT 1.6 sec ISI errors” value [9] of the same compound?
Its value is 21/49.

And the “PASAT 2.0 sec ISI errors” value [9]?
Its value is 17/49.

What about the “PASAT 2.4 sec ISI errors” value [9] of the same compound?
The value was 13/49.

And the “Simple Reaction Time 500 Green” value [10]?
The value was 284 ms.

What about the “Simple Reaction Time 500 Red” value [10] of the same compound?
The value was 266 ms.

And the “Simple Reaction Time 1500 Green” value [10]?
Its value is 212 ms.

And the “Simple Reaction Time 1500 Red” value [10]?
The value was 224 ms.
